For 33 compounds, IC50 results are on record in patent US8927715B2, “Inhibitors of 11β-hydroxysteroid dehydrogenase type 1” (Vitae Pharmaceuticals, Inc., priority 2006, dated 2015).

human 11β-HSD1, sequence (P28845 whole entry): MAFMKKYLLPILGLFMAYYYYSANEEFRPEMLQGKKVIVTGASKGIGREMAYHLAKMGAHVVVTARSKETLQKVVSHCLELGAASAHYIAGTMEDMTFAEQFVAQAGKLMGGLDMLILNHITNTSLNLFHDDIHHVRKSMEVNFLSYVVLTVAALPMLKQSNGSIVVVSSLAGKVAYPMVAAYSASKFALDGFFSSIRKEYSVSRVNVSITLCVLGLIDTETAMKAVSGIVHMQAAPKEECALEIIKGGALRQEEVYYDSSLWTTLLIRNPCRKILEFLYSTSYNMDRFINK

The experiment concerns the target human 11β-HSD1 (Homo sapiens, UniProt P28845). Description: Inhibition of a microsomal preparation of 11β-HSD1, SPA (Biological Test Example 2). The experiment is classed as biochemical. The arrangement: expressed in transfected cells; host or cells: CHO cells (microsomes). The following applies: read-out: Biological Test Example 2 (IC50 class). In outline: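 [3H]cortisol formation quantified by scintillation proximity with anti-cortisol antibody on protein A beads, reaction quenched by 10 nM 18β-glycyrrhetinic acid. Enzyme source: CHO-cell microsomes expressing human 11β-HSD1, 10-20 μg/ml protein, incubated 90 min at room temperature following 10 min pre-incubation.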
As to `O=C(O)CC1CC2(CCN(C(=O)NC3C4CC5(O)CC3CC(O)(C4)C5)CC2)c2c(Br)cccc21` (racemic) [Example 76, (±)-2-(7-Bromo-1′-(1,7-dihydroxy-4-adamantylcarbamoyl)-2,3-dihydrospiro[indene-1,4′-piperidine]-3-yl)acetic acid], the 50% inhibitory concentration (IC50) lay in the range of 50 to 1000 nM.
As to `O=C(O)CCS(=O)(=O)N1Cc2ccccc2C2(CCN(C(=O)NC3C4CC5CC(C4)CC3C5)CC2)C1` (stereo not drawn) [Example 108, 3-(1′-(2-Adamantylcarbamoyl)-1H-spiro[isoquinoline-4,4′-piperidine]-2(3H)-ylsulfonyl)propanoic acid], the IC50 was below 50 nM.
To `O=C(O)C1CC1C(=O)N1Cc2ccccc2C2(CCN(C(=O)NC3C4CC5CC(C4)CC3C5)CC2)C1` [Example 99, (1S,2R)-2-(1′42-Adamantylcarbamoyl)-2,3-dihydro-1H-spiro[isoquinoline-4,4′-piperidine]-2-ylcarbonyl)cyclopropanecaxboxylic acid] belongs 50 to 1000 nM; to `O=C(CC1CC2(CCN(C(=O)NC3C4CC5CC(C4)CC3C5)CC2)c2c(Br)cccc21)N1CCNCC1` (stereo not drawn) [Example 110, 7-Bromo-N-(2-adamantyl)-3-(2-oxo-2-(piperazin-1-yl)ethyl)-2,3-dihydrospiro[indene-1,4′-piperidine]-1′-carboxamide], below 50 nM.
As to `CC(C)S(=O)(=O)N1Cc2ccccc2C2(CCN(C(=O)OC3C4CC5CC(C4)CC3C5)CC2)C1` (stereo not drawn) [Example 40, 2-Adamantyl 2-(isopropylsulfonyl)-2,3-dihydro-1H-spiro[isoquinoline-4,4′-piperidine]-1′-carboxylate], the IC50 is below 50 nM.
Turning to `O=C(O)CC1CC2(CCN(C(=O)NC3C4CC5CC(C4)CC3C5)CC2)c2cc(F)ccc21` (racemic) [Example 60, (±)-2-(1′-((2-Adamantyl)carbamoyl)-6-fluoro-2,3-dihydrospiro[indene-1,4′-piperidine]-3-yl)acetic acid], the 50% inhibitory concentration (IC50) was below 50 nM.
Under `O=C(O)CC1CC2(CCN(C(=O)NC3C4CC5CC(C4)CC3C5)CC2)c2cc(Cl)ccc21` (racemic) [Example 54, (±)-2-(1′-((2-Adamantyl)carbamoyl)-6-chloro-2,3-dihydrospiro[indene-1,4′-piperidin]-3-yl)acetic acid] stands below 50 nM.
For `O=C(CC1CC2(CCN(C(=O)NC3C4CC5CC(C4)CC3C5)CC2)c2c(Br)cccc21)N1CCOCC1` (stereo not drawn) [Example 111, 7-Bromo-N-(2-adamantyl)-3-(2-morpholino-2-oxoethyl)-2,3-dihydrospiro[indene-1,4′-piperidine]-1′-carboxamide], the IC50 was below 50 nM.
Under `CN1Cc2ccccc2C12CCN(C(=O)NC1C3CC4CC(C3)CC1C4)CC2` (stereo not drawn) [Example 86, N-(2-Adamantyl)-2-methylspiro[isoindoline-1,4′-piperidine]-1′-carboxamide] stands below 50 nM; under `NC(=O)CC1CC2(CCN(C(=O)NC3C4CC5CC(C4)CC3C5)CC2)c2c(Br)cccc21` (racemic) [Example 131, (±)-3-(2-amino-2-oxoethyl)-7-bromo-N-(2-adamantyl)-2,3-dihydrospiro[indene-1,4′-piperidine]-1′-carboxamide], below 50 nM; under `CCOC(=O)CC1CC2(CCN(C(=O)NC34CC5CC(CC(C5)C3)C4)CC2)c2c(Br)cccc21` (racemic) [Example 61, (±)-Ethyl 2-(7-bromo-1′-((1-adamantyl)carbamoyl)-2,3-dihydrospiro[indene-1,4′-piperidine]-3-yl)acetate], below 50 nM.
Consider `CCOC(=O)CC1CC2(CCN(C(=O)NC3C4CC5CC(C4)CC3C5)CC2)c2cc(Cl)ccc21` (racemic) [Example 53, (±)-Ethyl 2-(1′-((2-adamantyl)carbamoyl)-6-chloro-2,3-dihydrospiro[indene-1,4′-piperidine]-3-yl)acetate], for which the IC50 was below 50 nM.
Consider `O=C(NC1C2CC3CC(C2)CC1C3)N1CCCC2(Cc3ccccc3C2O)C1` (stereo not drawn) [27, Step 2 Product], for which the IC50 was below 50 nM.
To `O=C(CC1CC2(CCN(C(=O)NC3C4CC5CC(C4)CC3C5)CC2)c2c(Br)cccc21)NCCN1CCNCC1` (stereo not drawn) [Example 119, 7-Bromo-N-(2-adamantyl)-3-(2-oxo-2-(2-(piperazin-1-yl)ethylamino)ethyl)-2,3-dihydrospiro[indene-1,4′-piperidine]-1′-carboxamide] belongs below 50 nM; to `O=C(O)/C=C/C(=O)N1Cc2ccccc2C2(CCN(C(=O)NC3C4CC5CC(C4)CC3C5)CC2)C1` (stereo not drawn) [Example 91, (E)-4-(1′-(2-Adamantylcarbamoyl)-1H-spiro[isoquinoline-4,4′-piperidine]-2(3H)-yl)-4-oxobut-2-enoic acid], below 50 nM.
For `CS(=O)(=O)N1Cc2ccccc2C2(CCN(C(=O)OC3C4CC5CC(C4)CC3C5)CC2)C1` (stereo not drawn) [Example 39, 2-Adamantyl 2-(methylsulfonyl)-2,3-dihydro-1H-spiro[isoquinoline-4,4′-piperidine]-1′-carboxylate], the IC50 was below 50 nM.
Under `COC(=O)CCS(=O)(=O)N1Cc2ccccc2C2(CCN(C(=O)OC3C4CC5CC(C4)CC3C5)CC2)C1` (stereo not drawn) [Example 107, 2-Adamantyl 2-(3-methoxy-3-oxopropylsulfonyl)-2,3-dihydro-1H-spiro[isoquinoline-4,4′-piperidine]-1′-carboxylate] stands below 50 nM; under “3-(1′-((2-Adamantyl)carbamoyl)-1H-spiro[isoquinoline-4,4′-piperidine]-2(3H)-yl)propanoic acid [Example 33]”, below 50 nM.
Consider `O=C(O)CC1CC2(CCN(C(=O)OC3C4CC5CC(C4)CC3C5)CC2)c2c(Br)cccc21` (racemic) [Example 63, (±)-2-(7-Bromo-1′-((2-adamantyloxy)carbonyl)-2,3-dihydrospiro[indene-1,4′-piperidine]-3-yl)acetic acid], for which the IC50 was below 50 nM.
Take `O=C(O)CCC(=O)N1Cc2ccccc2C2(CCN(C(=O)NC3C4CC5CC(C4)CC3C5)CC2)C1` (stereo not drawn) [Example 92, 4-(1′-(2-Adamantylcarbamoyl)-1H-spiro[isoquinoline-4,4′-piperidine]-2(3H)-yl)-4-oxobutanoic acid]: the IC50 was below 50 nM.
On to `CN1Cc2cccc(Cl)c2C12CCN(C(=O)NC1C3CC4CC(C3)CC1C4)CC2` (stereo not drawn) [Example 88, 7-Chloro-N-(2-adamantyl)-2-methylspiro[isoindoline-1,4′-piperidine]-1′-carboxamide], for which the half-maximal inhibitory concentration (IC50) was below 50 nM.
On to `O=C(NC1C2CC3CC(C2)CC1C3)N1CCC2(CC1)CC(CCN1CCOCC1)c1cccc(Br)c12` (racemic) [Example 126, (±)-7-Bromo-N-(2-adamantyl)-3-(2-morpholinoethyl)-2,3-dihydrospiro[indene-1,4′-piperidine]-1′-carboxamide], for which the IC50 is below 50 nM.
To `Cc1ccc2c(c1)C(CC(=O)O)CC21CCN(C(=O)OC2C3CC4CC(C3)CC2C4)CC1` (racemic) [Example 65, (±)-2-(5-Methyl-1′-((2-adamantyloxy)carbonyl)-2,3-dihydrospiro[indene-1,4′-piperidine]-3-yl)acetic acid] belongs below 50 nM.
Under `O=C(O)CC1CCC2(CC1)CCN(C(=O)NC1C3CC4CC(C3)CC1C4)CC2` (stereo not drawn) [Example 82, 2-(3-((2-Adamantyl)carbamoyl)-3-azaspiro[5.5]undecan-9-yl)acetic acid] stands 50 to 1000 nM; under `Cc1ccc2c(c1)C1(CCN(C(=O)OC3C4CC5CC(C4)CC3C5)CC1)CC2CC(=O)O` (racemic) [Example 64, (±)-2-(6-Methyl-1′-((2-adamantyloxy)carbonyl)-2,3-dihydrospiro[indene-1,4′-piperidine]-3-yl)acetic acid], below 50 nM; under `COC(=O)CCS(=O)(=O)N1Cc2ccccc2C2(CCN(C(=O)NC3C4CC5CC(C4)CC3C5)CC2)C1` (stereo not drawn) [Example 106, Methyl 3-(1′-(2-adamantylcarbamoyl)-1-H-spiro[isoquinoline-4,4′-piperidine]-2(3H)-ylsulfonyl)propanoate], below 50 nM.
Under `CNCCN(C)C(=O)CC1CC2(CCN(C(=O)NC3C4CC5CC(C4)CC3C5)CC2)c2c(Br)cccc21` (stereo not drawn) [Example 115, 7-Bromo-N-(2-adamantyl)-3-(2-(methyl(2-(methylamino)ethyl)amino)-2-oxoethyl)-2,3-dihydrospiro[indene-1,4′-piperidine]-1′-carboxamide] stands below 50 nM.
On to `NC(=O)C12CC3CC(C1)C(OC(=O)N1CCC4(CC1)CC(CC(=O)O)c1ccccc14)C(C3)C2` (stereo not drawn) [Example 73, 2-(1′-((1-Carbamoyl-4adamantyloxy)carbonyl)-2,3-dihydrospiro[indene-1,4′-piperidine]-3-yl)acetic acid], for which the IC50 is below 50 nM.
Under `O=C(NC1C2CC3CC(C2)CC1C3)N1CCC2(CC1)NC(=S)c1ccccc12` (stereo not drawn) [87, Step 1 Product] stands below 50 nM; under `CC(C(=O)O)C1CC2(CCN(C(=O)NC3C4CC5CC(C4)CC3C5)CC2)c2c(Br)cccc21` (stereo not drawn) [Example 66, 2-(7-Bromo-1′-((2-adamantyl)carbamoyl)-2,3-dihydrospiro[indene-1,4′-piperidine]-3-yl)propanoic acid], below 50 nM; under `O=C(O)CC1CC2(CCN(C(=O)NC3C4CC5CC(C4)CC3C5)CC2)c2c(Br)cccc21` (racemic) [Example 43, (±)-2-(7-Bromo-1′-((2-adamantyl)carbamoyl)-2,3-dihydrospiro[indene-1,4′-piperidine]-3-yl)acetic acid], below 50 nM.
Under `CCOC(=O)CC1CC2(CCN(C(=O)NC3C4CC5CC(C4)CC3C5)CC2)c2c(C)cccc21` (racemic) [Example 47, (±)-Ethyl 2-(1′-((2-adamantyl)carbamoyl)-7-methyl-2,3-dihydrospiro[indene-1,4′-piperidine]-3-yl)acetate] stands below 50 nM; under `CC1(C)NC2(CCN(C(=O)NC3C4CC5CC(C4)CC3C5)CC2)c2c(Cl)cccc21` (stereo not drawn) [Example 104, 7-Chloro-N-(2-adamantyl)-3,3-dimethylspiro[isoindoline-1,4′-piperidine]-1′-carboxamide], below 50 nM.
